Data from ChEMBL document CHEMBL1201862, “PubChem BioAssay data set” (2004).
Activity calls are given as the source filed them.

Columns and labels:
[1] = A cytotoxicity screen of small molecule inhibitors of the PhoP region in Salmonella typhi identified in the primary screen. [Related pubchem assays: 1850, 1864, 1985 ]; format: functional
Procathepsin L = Procathepsin L (Homo sapiens, UniProt P07711)
Aspartyl aminopeptidase = target: T1, Aspartyl aminopeptidase (Plasmodium falciparum 3D7, UniProt Q8I2J3)
T1 sequence (Q8I2J3 whole entry): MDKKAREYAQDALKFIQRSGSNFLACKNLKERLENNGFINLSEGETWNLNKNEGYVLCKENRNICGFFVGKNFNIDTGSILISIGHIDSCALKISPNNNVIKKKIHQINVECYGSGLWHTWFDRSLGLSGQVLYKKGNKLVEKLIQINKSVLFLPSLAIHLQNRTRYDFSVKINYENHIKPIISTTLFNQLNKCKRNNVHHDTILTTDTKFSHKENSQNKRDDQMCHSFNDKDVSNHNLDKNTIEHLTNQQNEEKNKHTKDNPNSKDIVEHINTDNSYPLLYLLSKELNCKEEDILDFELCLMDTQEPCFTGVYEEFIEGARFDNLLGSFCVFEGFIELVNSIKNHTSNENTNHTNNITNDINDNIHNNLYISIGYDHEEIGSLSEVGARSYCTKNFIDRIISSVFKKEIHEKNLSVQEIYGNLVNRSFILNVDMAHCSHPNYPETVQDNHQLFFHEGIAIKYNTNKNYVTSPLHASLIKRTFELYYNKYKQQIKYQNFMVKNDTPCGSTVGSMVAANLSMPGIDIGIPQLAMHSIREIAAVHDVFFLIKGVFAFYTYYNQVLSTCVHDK

[2] = inhibitors of SNCA 5'UTR-driven reporter translation, confirmation, H4 neuroglioma cells, luminescence (AID 1988); format: functional, cell-based
[3] = target: Glyceraldehyde-3-phosphate dehydrogenase (Homo sapiens, UniProt P04406)
Sequence of Glyceraldehyde-3-phosphate dehydrogenase (P04406 whole entry): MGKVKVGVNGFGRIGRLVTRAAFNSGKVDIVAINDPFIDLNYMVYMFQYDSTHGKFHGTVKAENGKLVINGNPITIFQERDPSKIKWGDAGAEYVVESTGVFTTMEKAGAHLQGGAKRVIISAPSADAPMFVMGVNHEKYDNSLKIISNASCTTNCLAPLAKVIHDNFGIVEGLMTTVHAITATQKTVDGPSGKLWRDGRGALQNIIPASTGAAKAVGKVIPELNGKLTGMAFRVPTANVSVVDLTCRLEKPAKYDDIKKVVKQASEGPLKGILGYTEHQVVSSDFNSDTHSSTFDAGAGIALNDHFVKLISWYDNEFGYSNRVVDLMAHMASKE

[4] = target: Luciferin 4-monooxygenase (Photinus pyralis, UniProt P08659); assay: Counter Screen for Luciferase-based Assay Positives. [Related pubchem assays: 620, 618, 411 ]
Sequence of Luciferin 4-monooxygenase (P08659 whole entry): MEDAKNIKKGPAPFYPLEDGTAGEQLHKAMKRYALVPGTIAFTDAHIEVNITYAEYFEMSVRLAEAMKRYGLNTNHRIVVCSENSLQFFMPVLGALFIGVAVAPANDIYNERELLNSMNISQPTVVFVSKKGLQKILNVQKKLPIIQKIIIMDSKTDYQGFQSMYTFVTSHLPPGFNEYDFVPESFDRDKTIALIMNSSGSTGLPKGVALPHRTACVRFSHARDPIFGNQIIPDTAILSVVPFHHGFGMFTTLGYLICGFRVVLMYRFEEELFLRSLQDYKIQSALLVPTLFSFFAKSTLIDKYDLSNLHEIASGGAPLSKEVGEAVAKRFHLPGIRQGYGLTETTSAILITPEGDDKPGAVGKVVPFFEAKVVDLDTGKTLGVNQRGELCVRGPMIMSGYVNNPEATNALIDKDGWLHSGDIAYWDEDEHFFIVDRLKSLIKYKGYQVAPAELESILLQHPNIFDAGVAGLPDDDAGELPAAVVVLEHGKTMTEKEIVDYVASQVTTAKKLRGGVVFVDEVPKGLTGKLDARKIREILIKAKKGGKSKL

[5] = cytotoxicity in HEK-293T cells, dose response, cytotoxicity control for BCR NF-kB inhibitor project, luminescence, B-cell screen hits (AID 489021); format: functional, cell-based;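 also: HEK-293T cells carrying an NF-kB luciferase reporter; cells exposed to compound for about 14 hours before viability readout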
[6] = target: T2, RNA-binding protein pos-1 (Caenorhabditis elegans, UniProt G5EF15); assay: inhibitors of POS-1/mex-3 RNA binding, dose response, biochemical, fluorescence polarization (AID 1964);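 also: purified POS-1 fused to maltose binding protein made in E. coli; potency of compounds blocking POS-1 binding to fluorescent RNA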
T2 sequence (G5EF15 whole entry): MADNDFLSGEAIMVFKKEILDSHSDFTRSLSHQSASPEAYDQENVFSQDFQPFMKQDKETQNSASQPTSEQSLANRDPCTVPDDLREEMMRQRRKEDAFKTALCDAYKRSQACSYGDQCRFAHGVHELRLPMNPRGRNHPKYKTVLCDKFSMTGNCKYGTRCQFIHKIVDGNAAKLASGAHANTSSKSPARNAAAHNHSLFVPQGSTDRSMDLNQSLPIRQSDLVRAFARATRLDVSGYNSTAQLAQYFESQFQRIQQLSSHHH

[7] = Luminescence Cell-Based Dose Response HTS to Identify Inhibitors of 5'UTR Stem-Loop Driven Prion Protein mRNA Translation in H4 Neuroglioblastoma Cells. [Related pubchem assays: 1827 (Project Summary), 1813 (Primary HTS)]; format: functional
[8] = target: T3, Zinc finger protein mex-5 (Caenorhabditis elegans, UniProt Q9XUB2); assay: MEX-5/TCR-2 RNA interaction inhibitors, dose response, biochemical, C. elegans, fluorescence polarization (AID 1960)
T3 sequence (Q9XUB2 whole entry): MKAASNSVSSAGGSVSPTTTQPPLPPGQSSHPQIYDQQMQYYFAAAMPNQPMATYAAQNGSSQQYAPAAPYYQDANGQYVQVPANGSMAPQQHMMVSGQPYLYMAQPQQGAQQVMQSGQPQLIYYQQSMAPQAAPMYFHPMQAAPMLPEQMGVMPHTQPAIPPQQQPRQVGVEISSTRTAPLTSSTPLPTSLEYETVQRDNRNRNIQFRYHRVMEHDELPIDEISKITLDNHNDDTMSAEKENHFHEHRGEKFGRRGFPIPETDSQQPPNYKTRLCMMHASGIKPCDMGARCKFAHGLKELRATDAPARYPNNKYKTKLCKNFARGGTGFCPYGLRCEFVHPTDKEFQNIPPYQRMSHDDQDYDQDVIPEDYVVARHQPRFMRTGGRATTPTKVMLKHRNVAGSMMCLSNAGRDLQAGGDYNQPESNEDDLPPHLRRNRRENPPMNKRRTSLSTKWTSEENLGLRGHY

[9] = inhibitors of firefly luciferase expression or activity, dose response, H4 neuroglioma cells, luminescence (AID 1990); format: functional, cell-based
HT-1080 = assay: cytotoxicity in HT1080 fibrosarcoma cells, cell-based, fluorescence readout (AID 620); format: functional; details: Homo sapiens
[10] = target: Heat shock protein HSP 90-alpha (Homo sapiens, UniProt P07900); assay: Luminescence-based dose response biochemical high throughput screening assay for inhibitors of the Heat Shock Protein 90 (HSP90). [Related pubchem assays: 1831 (Summary AID.), 1846 (Confirmation screen.), 1789 (Primary screen.)]
[11] = target: Peroxisome proliferator-activated receptor gamma/Nuclear receptor coactivator 2 (Homo sapiens, UniProt P37231); format: functional;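 also: agonist potency for raising coactivator recruitment to the receptor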
[12] = target: Peroxisome proliferator-activated receptor gamma/Nuclear receptor coactivator 3 (Homo sapiens, UniProt P37231); format: functional;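 also: agonist potency for raising coactivator recruitment to the receptor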
Sequence of Peroxisome proliferator-activated receptor gamma/Nuclear receptor coactivator 3 (P37231 whole entry): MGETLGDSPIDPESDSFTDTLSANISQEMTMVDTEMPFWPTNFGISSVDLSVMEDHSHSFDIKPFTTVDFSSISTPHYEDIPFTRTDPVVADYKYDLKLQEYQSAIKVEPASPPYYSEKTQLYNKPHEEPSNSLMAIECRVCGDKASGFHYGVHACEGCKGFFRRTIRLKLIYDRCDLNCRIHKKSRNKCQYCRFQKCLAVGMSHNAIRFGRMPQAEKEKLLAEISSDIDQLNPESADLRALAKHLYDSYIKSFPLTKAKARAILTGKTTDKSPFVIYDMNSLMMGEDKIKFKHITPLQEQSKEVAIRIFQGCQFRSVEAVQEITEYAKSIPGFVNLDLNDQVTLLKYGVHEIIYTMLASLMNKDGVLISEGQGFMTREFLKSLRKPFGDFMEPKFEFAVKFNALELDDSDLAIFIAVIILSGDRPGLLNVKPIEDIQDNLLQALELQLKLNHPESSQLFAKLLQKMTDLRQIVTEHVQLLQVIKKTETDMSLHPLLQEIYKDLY
Sequence of Peroxisome proliferator-activated receptor gamma/Nuclear receptor coactivator 3 (Q9Y6Q9 whole entry, further chain): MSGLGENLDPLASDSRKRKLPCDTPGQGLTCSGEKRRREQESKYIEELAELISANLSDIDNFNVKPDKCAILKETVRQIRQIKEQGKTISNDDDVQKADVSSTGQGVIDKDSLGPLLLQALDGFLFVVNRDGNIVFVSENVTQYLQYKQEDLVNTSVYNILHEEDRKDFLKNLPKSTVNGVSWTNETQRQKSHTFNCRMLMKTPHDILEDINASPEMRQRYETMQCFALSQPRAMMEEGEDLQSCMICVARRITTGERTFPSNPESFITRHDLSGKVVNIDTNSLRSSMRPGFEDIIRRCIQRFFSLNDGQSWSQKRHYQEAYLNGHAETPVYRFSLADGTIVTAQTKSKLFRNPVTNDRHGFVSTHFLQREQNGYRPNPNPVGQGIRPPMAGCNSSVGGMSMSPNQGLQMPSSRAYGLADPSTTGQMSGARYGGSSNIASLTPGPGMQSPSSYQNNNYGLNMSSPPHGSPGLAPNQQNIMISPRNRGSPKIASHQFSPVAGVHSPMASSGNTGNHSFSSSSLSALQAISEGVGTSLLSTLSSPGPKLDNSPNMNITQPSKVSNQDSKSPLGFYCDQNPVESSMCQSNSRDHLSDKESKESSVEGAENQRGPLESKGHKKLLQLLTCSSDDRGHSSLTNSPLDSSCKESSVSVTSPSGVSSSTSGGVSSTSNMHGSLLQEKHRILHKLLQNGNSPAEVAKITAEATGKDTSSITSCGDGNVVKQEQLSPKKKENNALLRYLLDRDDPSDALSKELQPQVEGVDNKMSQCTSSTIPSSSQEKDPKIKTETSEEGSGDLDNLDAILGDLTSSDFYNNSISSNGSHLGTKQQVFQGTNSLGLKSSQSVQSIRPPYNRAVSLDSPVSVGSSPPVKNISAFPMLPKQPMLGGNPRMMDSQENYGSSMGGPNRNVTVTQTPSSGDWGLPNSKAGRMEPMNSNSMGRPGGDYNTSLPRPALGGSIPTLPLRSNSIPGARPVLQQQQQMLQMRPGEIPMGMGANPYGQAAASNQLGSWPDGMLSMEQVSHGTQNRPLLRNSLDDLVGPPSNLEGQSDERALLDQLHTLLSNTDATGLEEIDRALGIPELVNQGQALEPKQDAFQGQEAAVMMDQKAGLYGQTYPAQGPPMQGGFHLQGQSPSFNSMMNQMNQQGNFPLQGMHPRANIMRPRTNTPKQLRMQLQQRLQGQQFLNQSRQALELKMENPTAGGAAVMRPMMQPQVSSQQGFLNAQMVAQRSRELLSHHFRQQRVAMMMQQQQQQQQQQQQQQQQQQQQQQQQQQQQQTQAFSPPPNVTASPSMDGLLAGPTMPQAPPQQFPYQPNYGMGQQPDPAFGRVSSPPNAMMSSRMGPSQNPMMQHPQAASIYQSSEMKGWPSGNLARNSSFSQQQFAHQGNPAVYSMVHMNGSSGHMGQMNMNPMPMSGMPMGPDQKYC

[13] = target: T4, Rac GTPase-activating protein 1 (Homo sapiens, UniProt Q9H0H5); assay: MgcRacGAP GTPase-activating activity inhibitors, confirmation, biochemical, ADP Hunter fluorescence, primary and confirmatory (AID 624330); format: functional
T4 sequence (Q9H0H5 whole entry): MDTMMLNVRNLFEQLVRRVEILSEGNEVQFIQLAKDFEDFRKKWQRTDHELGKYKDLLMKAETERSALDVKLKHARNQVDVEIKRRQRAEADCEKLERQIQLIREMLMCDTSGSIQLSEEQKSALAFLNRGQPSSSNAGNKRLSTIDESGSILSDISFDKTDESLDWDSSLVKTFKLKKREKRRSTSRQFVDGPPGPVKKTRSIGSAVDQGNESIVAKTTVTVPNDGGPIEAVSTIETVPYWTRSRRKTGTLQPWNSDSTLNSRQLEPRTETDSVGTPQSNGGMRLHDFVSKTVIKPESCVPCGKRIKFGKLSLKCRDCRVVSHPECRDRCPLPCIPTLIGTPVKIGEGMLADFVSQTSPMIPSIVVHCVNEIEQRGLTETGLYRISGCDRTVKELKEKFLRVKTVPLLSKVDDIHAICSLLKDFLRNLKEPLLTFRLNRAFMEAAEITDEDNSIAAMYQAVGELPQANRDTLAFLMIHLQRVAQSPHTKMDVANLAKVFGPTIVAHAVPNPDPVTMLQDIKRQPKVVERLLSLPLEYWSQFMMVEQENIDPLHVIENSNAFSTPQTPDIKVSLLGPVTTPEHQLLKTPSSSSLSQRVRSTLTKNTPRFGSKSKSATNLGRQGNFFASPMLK

[14] = target: Peroxisome proliferator-activated receptor gamma/Nuclear receptor coactivator 1 (Homo sapiens, UniProt P37231); format: functional;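 also: agonist potency as compounds enhance coactivator SRC-1 recruitment to PPARgamma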
Cytochrome P450 2C19 = Cytochrome P450 2C19 (Homo sapiens, UniProt P33261); assay: Cytochrome panel assay with activity outcomes. Panel member name: p450-cyp2c19 Compounds with AC50 equal or less than 10 uM are considered active; format: functional; details: read-out: AC50
Sequence of Cytochrome P450 2C19 (P33261 whole entry): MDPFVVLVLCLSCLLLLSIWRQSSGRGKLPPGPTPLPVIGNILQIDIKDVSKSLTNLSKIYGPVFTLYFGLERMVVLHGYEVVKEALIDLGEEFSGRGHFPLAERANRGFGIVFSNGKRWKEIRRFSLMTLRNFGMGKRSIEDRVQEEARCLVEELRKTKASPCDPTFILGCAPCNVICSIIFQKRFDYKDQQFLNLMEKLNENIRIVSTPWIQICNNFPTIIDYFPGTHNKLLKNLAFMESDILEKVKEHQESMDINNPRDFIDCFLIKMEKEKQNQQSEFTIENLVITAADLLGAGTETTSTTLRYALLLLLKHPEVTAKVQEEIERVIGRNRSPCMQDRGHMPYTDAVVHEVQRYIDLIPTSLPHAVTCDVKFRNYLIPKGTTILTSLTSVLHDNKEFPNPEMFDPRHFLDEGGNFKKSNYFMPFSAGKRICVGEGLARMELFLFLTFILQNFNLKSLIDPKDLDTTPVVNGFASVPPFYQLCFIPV

Cytochrome P450 2D6 = Cytochrome P450 2D6 (Homo sapiens, UniProt P10635);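 also: CYP2D6 member of a cytochrome P450 panel assay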
Sequence of Cytochrome P450 2D6 (P10635 whole entry): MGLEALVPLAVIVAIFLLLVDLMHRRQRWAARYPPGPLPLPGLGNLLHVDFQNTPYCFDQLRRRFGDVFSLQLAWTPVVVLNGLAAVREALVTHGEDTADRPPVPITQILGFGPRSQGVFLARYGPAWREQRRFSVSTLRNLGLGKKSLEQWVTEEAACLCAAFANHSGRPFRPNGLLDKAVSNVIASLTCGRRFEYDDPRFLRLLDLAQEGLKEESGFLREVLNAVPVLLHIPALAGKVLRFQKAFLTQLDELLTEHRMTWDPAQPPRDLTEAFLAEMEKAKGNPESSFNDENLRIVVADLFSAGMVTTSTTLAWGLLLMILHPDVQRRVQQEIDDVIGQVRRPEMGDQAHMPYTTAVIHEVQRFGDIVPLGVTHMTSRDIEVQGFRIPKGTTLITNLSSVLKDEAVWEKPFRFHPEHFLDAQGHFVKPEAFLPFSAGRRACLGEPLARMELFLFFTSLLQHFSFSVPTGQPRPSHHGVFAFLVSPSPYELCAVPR

[15] = target: T5, Acyl-homoserine lactone acylase PvdQ (Pseudomonas aeruginosa (strain LESB58), UniProt Q9I194); assay: P. aeruginosa PvdQ acylase inhibitors, dose response, biochemical, fluorescence, plate reader and imaging, cherry-picks (AID 493231)
T5 sequence (Q9I194 whole entry): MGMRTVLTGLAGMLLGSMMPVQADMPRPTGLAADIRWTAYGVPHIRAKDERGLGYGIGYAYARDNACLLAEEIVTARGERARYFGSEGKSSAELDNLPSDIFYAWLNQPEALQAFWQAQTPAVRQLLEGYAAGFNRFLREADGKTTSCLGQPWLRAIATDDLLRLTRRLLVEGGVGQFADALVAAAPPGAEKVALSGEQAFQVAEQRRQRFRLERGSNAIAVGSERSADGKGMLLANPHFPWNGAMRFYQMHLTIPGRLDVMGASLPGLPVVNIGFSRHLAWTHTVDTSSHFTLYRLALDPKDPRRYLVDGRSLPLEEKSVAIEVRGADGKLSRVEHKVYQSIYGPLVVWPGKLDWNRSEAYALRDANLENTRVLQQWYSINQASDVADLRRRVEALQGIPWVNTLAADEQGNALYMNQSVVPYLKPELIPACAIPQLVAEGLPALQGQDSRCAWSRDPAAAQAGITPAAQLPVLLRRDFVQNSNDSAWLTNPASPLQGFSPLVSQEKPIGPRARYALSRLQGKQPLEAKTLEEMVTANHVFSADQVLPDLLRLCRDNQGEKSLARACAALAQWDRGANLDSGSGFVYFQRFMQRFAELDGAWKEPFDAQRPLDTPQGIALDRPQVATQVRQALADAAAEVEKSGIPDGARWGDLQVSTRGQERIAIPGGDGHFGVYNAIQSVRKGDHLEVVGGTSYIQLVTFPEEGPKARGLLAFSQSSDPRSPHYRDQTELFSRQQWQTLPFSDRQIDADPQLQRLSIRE

X-box-binding protein 1 = target: T6, X-box-binding protein 1 (Homo sapiens, UniProt P17861); format: functional, Cricetulus griseus;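 also: confirmatory dose-response counter-screen serving a CHOP assay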
T6 sequence (P17861 whole entry): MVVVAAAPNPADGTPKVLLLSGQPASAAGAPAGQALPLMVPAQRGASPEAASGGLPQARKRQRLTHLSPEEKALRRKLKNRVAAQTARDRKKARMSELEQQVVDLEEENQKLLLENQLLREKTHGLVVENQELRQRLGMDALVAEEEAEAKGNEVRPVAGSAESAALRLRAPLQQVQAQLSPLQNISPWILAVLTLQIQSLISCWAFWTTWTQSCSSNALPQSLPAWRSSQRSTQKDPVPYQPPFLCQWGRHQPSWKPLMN

[16] = target: T7, Oxysterols receptor LXR-beta (Homo sapiens, UniProt P55055); format: functional, cell-based;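 also: Cell-based luminescence dose-response assay of agonist activity at LXR, run as a confirmatory counterscreen to a daf-12 agonist screen; HEK293 cells with Gal4-LXR fusion and GAL4-driven luciferase reporter; agonist potency from rising luciferase signal of a Gal4-LXR reporter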
T7 sequence (P55055 whole entry): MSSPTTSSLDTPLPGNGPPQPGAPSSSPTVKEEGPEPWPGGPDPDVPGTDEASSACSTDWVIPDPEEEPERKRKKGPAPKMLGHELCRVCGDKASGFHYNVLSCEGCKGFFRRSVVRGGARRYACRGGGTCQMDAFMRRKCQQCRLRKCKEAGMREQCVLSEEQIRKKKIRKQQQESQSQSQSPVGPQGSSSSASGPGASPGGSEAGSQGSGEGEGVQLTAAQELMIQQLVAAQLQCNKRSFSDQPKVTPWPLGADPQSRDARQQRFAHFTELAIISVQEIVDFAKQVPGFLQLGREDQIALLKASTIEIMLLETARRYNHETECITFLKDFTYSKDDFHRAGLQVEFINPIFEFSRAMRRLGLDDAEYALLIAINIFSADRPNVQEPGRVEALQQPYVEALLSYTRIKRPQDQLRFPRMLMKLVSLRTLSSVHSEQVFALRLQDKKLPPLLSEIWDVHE

BJ [17] = assay: cytotoxicity toward BJ-TERT fibroblasts, dose response, cell-based, RAS-independent, luminescence (AID 1933); format: functional; details: Homo sapiens
[18] = cytotoxicity toward DRD oncogenic fibroblasts, dose response, cell-based, non-viral oncogenic, luminescence (AID 1934); format: functional; details: Homo sapiens
BJ [19] = assay: cells; format: functional, cell-based; details: Homo sapiens
BJ [20] = assay: cytotoxicity toward BJ-TERT-LT-ST fibroblasts, dose response, cell-based, RAS-independent, luminescence (AID 1935); format: functional; details: Homo sapiens;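 also: BJ fibroblasts immortalized with TERT plus LT and ST oncogenes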

Sequence of Procathepsin L (P07711 whole entry): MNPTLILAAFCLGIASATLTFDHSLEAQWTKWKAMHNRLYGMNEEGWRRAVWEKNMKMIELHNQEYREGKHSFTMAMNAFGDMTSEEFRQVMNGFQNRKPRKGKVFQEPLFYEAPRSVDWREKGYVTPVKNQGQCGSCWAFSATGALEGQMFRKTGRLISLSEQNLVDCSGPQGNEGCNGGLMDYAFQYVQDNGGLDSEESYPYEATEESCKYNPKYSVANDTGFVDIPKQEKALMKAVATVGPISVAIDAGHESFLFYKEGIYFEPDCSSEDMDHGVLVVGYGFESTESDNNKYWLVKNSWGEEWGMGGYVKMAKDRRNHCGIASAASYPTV

## Cc1ccc(OCCCCn2c(CO)nc3ccccc32)cc1
[1]
  EC50: > 50 µM (active)

## COc1ccc(N2C(=O)/C(=C\Nn3cnnc3)c3ccccc3C2=O)cc1
Procathepsin L
  IC50: > 59.6 µM (not active)
Aspartyl aminopeptidase
  IC50: 1.56 µM (active)

## CCN(CC)c1ccc2cc(NC(=O)CCC(=O)O)c(=O)oc2c1
[2]
  EC50: 0.491 µM (active)
[3]
  IC50: > 100 µM (not active)
[4]
  EC50: > 100 µM (not active)
[5]
  IC50: > 80 µM (inactive)
[6]
  EC50: 120 µM (inconclusive)
[7]
  EC50: 3.7 µM (active)
[8]
  EC50: 7.36 µM (active)
[9]
  EC50: < 0.1 µM (active)
HT-1080
  EC50: > 50 µM (not active)
[10]
  IC50: > 60 µM (not active)

## COC(=O)c1[nH]c2cc(OC)c(OC)cc2c1NC(=O)Oc1ccccc1
[11]
  EC50: 90.7 µM (not active)
[12]
  EC50: > 79.4 µM (not active)
[13]
  IC50: 28.8 µM (active)
[14]
  EC50: 97.7 µM (not active)

## CCOC(=O)c1ccc(S(=O)(=O)N2CCN(CCC#N)CC2)cc1
[1]
  EC50: > 50 µM (active)

## COc1ccc(/C=C/C(=O)c2ccoc2)cc1
Cytochrome P450 2C19
  AC50: 14.1 µM (inconclusive)
Cytochrome P450 2D6
  AC50: 25.1 µM (inconclusive)
[15]
  AC50: 11.4 µM (active)

## S=C(Nc1cc(Cl)ccc1Cl)Nn1cnnc1
Procathepsin L
  IC50: > 59.6 µM (not active)
Aspartyl aminopeptidase
  IC50: 0.662 µM (active)

## FC(F)C(F)(F)C(F)(F)C(F)(F)c1cc(-c2ccccc2)[nH]n1
X-box-binding protein 1
  Absolute IC50 (XBP1): 10 µM

## O=C(Nc1cc(Cl)ccc1Cl)Nn1cnnc1
Procathepsin L
  IC50: > 59.6 µM (not active)
Aspartyl aminopeptidase
  IC50: 0.5 µM (active)

## Cc1cc(S(=O)(=O)NCC2CC2)c(Cl)cc1Cl
[15]
  AC50: 1.1 µM (active)

## COc1ccc(-c2ccc(OC)cc2)cc1
[15]
  AC50: 78.8 µM (active)

## O/C(=C\C=N\c1cccc(O)c1)c1ccccc1
cells
  EC50: > 67.6 µM (inactive)
[4]
  EC50: 1.03 µM (active)
HT-1080
  EC50: > 50 µM (not active)
[16]
  EC50: > 67.6 µM (inactive)

## COc1ccc(-c2nc3ccccc3[nH]2)cc1
[4]
  EC50: 11 µM (active)
BJ [17]
  EC50: 8.49 µM (active)
HT-1080
  EC50: 20.3 µM (active)
[18]
  EC50: 9.35 µM (active)
BJ [19]
  EC50: 19.1 µM (active)
BJ [20]
  EC50: 22.7 µM (active)

## O=c1c2ccccc2[nH]c2ccc(F)cc12
[1]
  EC50: > 50 µM (active)
